From PMC9134315, “Systemic Administration of a Brain Permeable Cdk5 Inhibitor Alters Neurobehavior” (Frontiers in Pharmacology, 2022)

Columns and labels:
Cdk5 [1] = molecular target: T1, Cdk5 (Mus musculus, UniProt P49615); assay: Ex vivo acute striatal brain slice pharmacology, immunoblot of phospho-Thr75 DARPP-32 and phospho-Ser1116 NR2B; format: cell-based; details: acute striatal slices, 1 h treatment, 0-10 µM; read-out: IC50, Cdk5-dependent phosphorylation of DARPP-32 and NR2B
T1 construct: from tissue; host or cells: striatum of wild-type C57BL/6 mice (acute slices, or lysates after I.V. dosing)
T1 sequence (P49615 whole entry): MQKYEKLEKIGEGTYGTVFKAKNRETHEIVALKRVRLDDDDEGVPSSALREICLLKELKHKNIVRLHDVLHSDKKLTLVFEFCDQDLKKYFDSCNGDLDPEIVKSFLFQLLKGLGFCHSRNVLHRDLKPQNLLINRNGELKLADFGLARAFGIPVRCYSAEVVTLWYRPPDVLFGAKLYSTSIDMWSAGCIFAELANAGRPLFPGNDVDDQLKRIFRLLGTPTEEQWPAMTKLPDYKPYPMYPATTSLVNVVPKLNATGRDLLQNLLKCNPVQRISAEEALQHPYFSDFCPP
T1 sequence (P61809 2-307 partner limits assumed): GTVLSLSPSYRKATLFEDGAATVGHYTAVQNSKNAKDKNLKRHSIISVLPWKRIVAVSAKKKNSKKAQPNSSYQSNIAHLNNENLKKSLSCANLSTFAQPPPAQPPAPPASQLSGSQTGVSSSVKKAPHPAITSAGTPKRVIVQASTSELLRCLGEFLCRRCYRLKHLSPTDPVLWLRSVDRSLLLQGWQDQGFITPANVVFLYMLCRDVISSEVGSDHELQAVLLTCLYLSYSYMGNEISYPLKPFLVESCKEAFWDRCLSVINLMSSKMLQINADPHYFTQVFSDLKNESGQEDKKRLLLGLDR
Protocol: Brain slice pharmacology was performed as described ([Nishi et al., 2000]). Briefly, the mice were decapitated, and the brains were rapidly dissected and submerged in ice-cold normal Kreb’s solution (124 mM NaCl, 4 mM KCl, 26 mM NaHCO3, 1.25 mM KH2PO4, 1.5 mM MgSO4, 10 mM D-glucose, and 1.5 mM CaCl2). The brains were subsequently sectioned into normal Kreb’s solution at 350 µ thickness. The brain slices were transferred to a 30°C solution of normal Kreb’s containing 10 µM deaminase for a 1-h recovery period. The sections were then incubated in normal Kreb’s solution with and without the indicated compounds across the dose and time ranges indicated. The sections were rapidly snap-frozen in dry ice to terminate treatment regimes.
(§1) Immunoblotting was performed as previously described ([Umfress et al., 2021]). Mouse brains were rapidly dissected in an ice-cold solution of 50 mM NaF/PBS. The regions of interest were further dissected out and rapidly snap-frozen in dry ice. The frozen tissue was homogenized in boiling lysis buffer (1% SDS, 50 mM NaF) and sonicated with several three to four pulses at 40 dB. The samples were subsequently denatured at 90°C for 5 min. Protein concentration was determined by the BCA assay, and homogenates were diluted in 4x sample buffer, separated by SDS-PAGE, and transferred to 0.45-µm nitrocellulose membranes, blocked with 5% milk solution (1 h), and probed with primary antibodies (overnight). The following antibodies were used in the study: phospho-Ser549 synapsin I (Phosphosolutions), total synapsin I (Phosphosolutions), actin (Invitrogen), phospho-Ser1116 (in-house) ([Plattner et al., 2014]), and total NR2B (Phosphosolutions), phospho-Thr75, and total DARPP-32 (Cell Signaling Technology). Visualization was performed using the Licor CLX membrane scanner and Licor secondary antibodies.
In order to assess the functional inhibition of Cdk5 in intact brain tissue by the four compounds summarized in Figure 1, acutely prepared striatal slices were treated in a dose-dependent manner (0, 0.25, 0.5, 1, 5, and 10 µM) with each inhibitor for 1 h, and Cdk5 activity was assessed via immunoblotting the phosphorylation of established Cdk5 sites, phospho-Thr75 DARPP-32 and phospho-Ser1116 NR2B ([Bibb et al., 1999]; [Plattner et al., 2014]).

Cdk5 [2] = molecular target: T1, Cdk5; assay: In vivo Cdk5 inhibition after I.V. injection, immunoblot of striatal phospho-Ser549 synapsin I; details: 50 mg/kg I.V., striatal lysates, various time points, data not shown
Protocol: The wild-type group housed male C57BL/6 mice 10–12 weeks of age were used for all in vivo, ex vivo, and behavioral studies. This age range was selected to be consistent with previous studies of conditional Cdk5 knockout mice ([Plattner et al., 2015]). 25–106 was administered in a 20-fold dose range intravenously (I.V.) at 10, 50, 100, and 200 mg/kg for pharmacokinetic studies. This delivery mode was used as I.V. injections to avoid first-pass drug metabolism observed using other injection methods ([Pond and Tozer, 1984]). […] All animal experiments were performed under approved protocols by the University of Alabama at Birmingham (UAB) Institutional Animal Care and Use Committees and in accordance with the guidelines of the Animal Welfare Act and the Guide for the Care and Use of Laboratory Animals.
as §1
Each of the four compounds tested in brain slices was further screened for their ability to penetrate the blood–brain barrier (BBB) and inhibit Cdk5-dependent activity in vivo. For these studies, cohorts of mice were treated with each compound via I.V. injection (50 mg/kg), and brain striatal lysates from various time points were subjected to quantitative immunoblot analysis for phosho-Ser549 Synapsin I levels. Three compounds, 20–107, 20–132, and 20–143, had no effect on Cdk5 activity compared to that of vehicle alone (data not shown). […] Moreover, this effect persisted even 24 h after dosing.

[3] = ref Vita et al., 2005; cited from earlier work

For `O=C(Cc1ccc2c(c1)OCCO2)Nc1cc(C2CCC2)[nH]n1` [25–107], the IC50 (Cdk5 [1]) was 500 to 1000 nM and the “effect on Cdk5 activity (phospho-Ser549 synapsin I) compared to vehicle” value (shortened to “effect on Cdk5 activity … compared to vehicle”) (Cdk5 [2]) was “no effect”.

In the case of `O=C(C/C=C/c1ccccc1)Nc1cc(C2CCC2)[nH]n1` [25–132], the IC50 (Cdk5 [1]) is reported as 500 to 1000 nM and the “effect on Cdk5 activity … compared to vehicle” value (Cdk5 [2]) is reported as “no effect”.

For `COc1ccc(CC(=O)Nc2cc(C3CCC3)[nH]n2)cc1OC` [25–143], the IC50 (Cdk5 [1]) was 500 to 1000 nM and the “effect on Cdk5 activity … compared to vehicle” value (Cdk5 [2]) was “no effect”.

In the case of `CC[C@H](CO)Nc1nc(NCc2ccccc2)c2ncn(C(C)C)c2n1` [roscovitine], the “distribution into the brain” value [3] is given as “could distribute into the brain” and the “half-life and active metabolites” value [3] is given as “rapid half-life with no detectable active metabolites”.
